# From US9233979B2, “Compounds that are ERK inhibitors” (Merck Sharp & Dohme Corp., priority 2012, dated 2016)
# Biological target: phosphorylated active hERK2 enzyme (Homo sapiens (Human), UniProt P28482)
# Assay: Active Human ERK2 (hERK2) Activity Assay (IMAP-FP)
# Type: biochemical
# Conditions: Table 5, 0.5 nM hERK2, 30 μM ATP, 10 point titration, read-out: AERK2 IC50
# Method in brief: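 IMAP fluorescence-polarization kinase assay: 0.5 nM activated hERK2 with 900 nM unlabeled plus 80 nM labeled peptide and 30 μM ATP, reacted 60 min. Quenched with IMAP beads in binding buffer with 24 mM NaCl; FP read after 60 min equilibration.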
# Sequence of phosphorylated active hERK2 enzyme (P28482 whole entry): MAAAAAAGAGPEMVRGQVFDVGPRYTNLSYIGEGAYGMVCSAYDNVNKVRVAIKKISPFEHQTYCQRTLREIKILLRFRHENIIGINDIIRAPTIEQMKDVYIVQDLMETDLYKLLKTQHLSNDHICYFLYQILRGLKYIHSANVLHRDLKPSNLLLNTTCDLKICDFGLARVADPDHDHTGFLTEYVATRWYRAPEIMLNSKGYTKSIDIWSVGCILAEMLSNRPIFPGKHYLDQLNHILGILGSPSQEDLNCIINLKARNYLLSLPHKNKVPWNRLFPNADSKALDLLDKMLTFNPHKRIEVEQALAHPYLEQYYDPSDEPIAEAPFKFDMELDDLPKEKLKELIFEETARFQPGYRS
row,IC50 [nM],Structure (SMILES)
1,6.47,"C[C@@H](NC(=O)Nc1ncc2c(N)n[nH]c2c1F)c1ccccc1 [Example 59, (R)-1-(3-Amino-7-fluoro-1H-pyrazolo[4,3-c]pyridin-6-yl)-3-(1-phenylethyl)urea]"
2,321,"CCS(=O)(=O)Nc1n[nH]c2cc(NC(=O)N[C@H](C)c3ccccc3)ncc12 [Example 50, (R)—N-(6-(3-(1-Phenylethyl)ureido)-1H-pyrazolo[4,3-c]pyridin-3-yl)ethanesulfonamide]"
3,19.5,"CCNc1n[nH]c2cc(NC(=O)N[C@H](C)c3ccccn3)ncc12 [Example 4, 1-[3-(ethylamino)-1H-pyrazolo[4,3-c]pyridin-6-yl]-3-[(1R)-1-pyridin-2-ylethyl]urea]"

# Same assay, conditions: Table 6, 0.5 nM hERK2, 30 μM ATP, 10 point titration, read-out: AERK2 IC50
row,IC50 [nM],Structure (SMILES)
1,0.4,"COC[C@@H](NC(=O)Nc1cc2[nH]nc(NC(=O)C(C)C)c2cn1)c1ccccc1 [Example 319, (S)-N-(6-(3-(2-methoxy-1-phenylethyl)ureido)-1H-pyrazolo[4,3-c]pyridin-3-yl)-isobutyramide]"
2,421,"CCNc1n[nH]c2cc(NC(=O)NC(C(=O)N(CC)CC)c3ccc(F)cc3)ncc12 (stereo not drawn) [Example 412, N,N-diethyl-2-({[3-(ethylamino)-1H-pyrazolo[4,3-c]-pyridin-6-yl]-carbamoyl}amino)-2-(4-fluoro-phenyl)acetamide]"
3,33,CCNc1n[nH]c2cc(NC(=O)NC(C)c3ccc(F)cn3)ncc12 (stereo not drawn) [Example 284]
4,0.9,"C[C@@H](O)[C@@H](NC(=O)Nc1cc2[nH]nc(N3CCC(F)(F)CC3)c2cn1)c1ccc(F)cc1 [Example 365, 1-[3-(4,4-difluoropiperidin-1-yl)-1H-pyrazolo[4,3-c]pyridin-6-yl]-3-[(1S,2R)-1-(4-fluorophenyl)-2-hydroxypropyl]urea]"
5,0.5,"Cc1nc(NC(=O)N[C@@H](c2ccc(F)cc2)[C@@H](C)O)cc2[nH]nc(N3CCOCC3)c12 [Example 106, 1-((1S,2R)-1-(4-Fluorophenyl)-2-hydroxypropyl)-3-(4-methyl-3-morpholino-1H-pyrazolo[4,3-c]pyridin-6-yl)urea]"
6,9.1,"C[C@@H](NC(=O)Nc1cc2[nH]nc(N3CCC4(CC3)COC4)c2cn1)c1ccccc1 [Example 89, 1-[3-(2-oxa-7-azaspiro[3.5]non-7-yl)-1H-pyrazolo[4,3-c]pyridin-6-yl]-3-[(1R)-1-phenylethyl]-urea]"
7,24.5,"COc1ccccc1Nc1n[nH]c2cc(NC(=O)N[C@H](C)c3ccccc3)ncc12 [Example 121, 1-{3-[(2-methoxyphenyl)amino]-1H-pyrazolo[4,3-c]pyridin-6-yl}-3-[(1R)-1-phenylethyl]urea]"
8,385,"COCC(C)(C)Nc1n[nH]c2cc(NC(=O)N[C@H](C)c3ccccc3)ncc12 [Example 361, 1-{3-[(2-methoxy-1,1-dimethylethyl)-amino]-1H-pyrazolo[4,3-c]-pyridin-6-yl}-3-[(1R)-1-phenylethyl]urea]"
9,6,"C[C@@H](NC(=O)Nc1cc2[nH]nc(N3CC4CC3CO4)c2cn1)c1ccccc1 (stereo partly drawn) [Example 449, 1-[3-(2-oxa-5-azabicyclo[2.2.1]-hept-5-yl)-1H-pyrazolo[4,3-c]-pyridin-6-yl]-3-[(1R)-1-phenylethyl]urea]"
10,1.1,"COC[C@@H](NC(=O)Nc1cc2[nH]nc(NC3CCOC3)c2cn1)c1ccccc1 (stereo partly drawn) [Example 158, 1-[(1S)-2-methoxy-1-phenylethyl]-3-[3-(tetrahydro-furan-3-ylamino)-1H-pyrazolo[4,3-c]pyridin-6-yl]urea]"
11,2.4,"CCNc1n[nH]c2cc(NC(=O)N[C@H](C)c3cccc(Cl)c3)ncc12 [Example 246, 1-[(1R)-1-(3-chlorophenyl)ethyl]-3-[3-(ethylamino)-1H-pyrazolo[4,3-c]pyridin-6-yl]urea]"
12,367,"C[C@@H](NC(=O)Nc1cc2[nH]nc(Nc3ccc(C#N)nc3)c2cn1)c1ccccc1 [Example 381, 1-{3-[(6-cyanopyridin-3-yl)amino]-1H-pyrazolo[4,3-c]-pyridin-6-yl}-3-[(1R)-1-phenylethyl]urea]"
13,10.7,"COc1ccccc1CNC(=O)Nc1cc2[nH]nc(N)c2cn1 [Example 268, 1-(3-amino-1H-pyrazolo[4,3-c]pyridin-6-yl)-3-(2-methoxy-benzyl)urea]"
14,413,"CCNc1n[nH]c2cc(NC(=O)NC(C(=O)N(C)C)c3ccc(F)cc3)ncc12 (stereo not drawn) [Example 414, 2-({[3-(ethylamino)-1H-pyrazolo[4,3-c]-pyridin-6-yl]-carbamoyl}amino)-2-(4-fluorophenyl)-N,N-dimethyl-acetamide]"
15,31.6,"COC(=O)N[C@H](C(=O)Nc1n[nH]c2cc(NC(=O)N[C@H](C)c3ccc(F)cc3)ncc12)C(C)C [Example 66, methyl [(1S)-1-{[6-({[(1R)-1-(4-fluoro-phenyl)ethyl]-carbamoyl}-amino)-1H-pyrazolo[4,3-c]-pyridin-3-yl]-carbamoyl}-2-methylpropyl]-carbamate]"
16,13.8,"C[C@@H](NC(=O)Nc1cc2[nH]nc(N3CC4C5CCC(C)(O5)C4C3)c2cn1)c1ccc(F)cc1 (stereo partly drawn) [Example 376, 1-[(1R)-1-(4-fluorophenyl)ethyl]-3-[3-(4-methyl-octahydro-2H-4,7-epoxyisoindol-2-yl)-1H-pyrazolo[4,3-c]-pyridin-6-yl]urea]"
17,11.8,"CCNc1n[nH]c2cc(NC(=O)N[C@H](C)c3ccccc3)nc(Cl)c12 [Example 454, 1-[4-chloro-3-(ethylamino)-1H-pyrazolo[4,3-c]pyridin-6-yl]-3-[(1R)-1-phenylethyl]urea]"
18,143,"CCNc1n[nH]c2cc(NC(=O)NC(C)c3ccc(C)nc3)ncc12 (stereo not drawn) [Example 280, 1-[3-(ethylamino)-1H-pyrazolo[4,3-c]pyridin-6-yl]-3-[1-(6-methyl-pyridin-3-yl)-ethyl]urea]"
19,2.8,"C[C@@H](O)[C@@H](NC(=O)Nc1cc2[nH]nc(N3CCC3)c2cn1)c1ccc(F)cc1 [Example 105, 1-(3-azetidin-1-yl-1H-pyrazolo[4,3-c]pyridin-6-yl)-3-[(1S,2R)-1-(4-fluorophenyl)-2-hydroxypropyl]urea]"
20,5.6,"CCNC(=O)Nc1n[nH]c2cc(NC(=O)N[C@H](C)c3ccccc3)ncc12 [Example 313, (R)-1-(3-(3-ethylureido)-1H-pyrazolo[4,3-c]pyridin-6-yl)-3-(1-phenylethyl)urea]"
21,33,"CCNc1n[nH]c2cc(NC(=O)NC(CC)c3ccccn3)ncc12 (stereo not drawn) [Example 320, 1-(3-(ethylamino)-1H-pyrazolo[4,3-c]pyridin-6-yl)-3-(1-(pyridin-2-yl)propyl)urea]"
22,0.4,"O=C(Nc1cc2[nH]nc(N3CCOCC3)c2cn1)N[C@H](CO)c1ccccc1 [Example 437, 1-[(1S)-2-hydroxy-1-phenylethyl]-3-(3-morpholin-4-yl-1H-pyrazolo[4,3-c]pyridin-6-yl)urea]"
23,0.4,"COC(=O)Nc1n[nH]c2cc(NC(=O)N[C@@H](c3ccc(F)cc3)C3(O)CCC3)ncc12 [Example 386, methyl [6-({[(S)-(4-fluorophenyl)(1-hydroxycyclobutyl)methyl]carbamoyl}amino)-1H-pyrazolo[4,3-c]-pyridin-3-yl]-carbamate]"
24,246,"CNc1n[nH]c2cc(NC(=O)N[C@H](c3ccccc3)[C@H]3CCCO3)ncc12 [Example 147, 1-(3-(methylamino)-1H-pyrazolo[4,3-c]pyridin-6-yl)-3-((R)-phenyl((R)-tetrahydrofuran-2-yl)methyl)urea]"
